From patent US20220073475A1, “5-MEMBERED HETEROARYL COMPOUNDS CONTAINING A HYDROXAMATE MOIETY AND THEIR USE” (UNIVERSITE DE LILLE, priority 2019, published 2022)

What follows are compounds tested on OPM2 cells (assay: CFZ potency increase, ratio of CC50 of CFZ alone / with compound). Conditions: OPM2, compound at 7.5 μM (Table 5).
Format: cell-based, human
Excerpt: Human multiple myeloma cells OPM2 (ACC 50, DSMZ) are maintained at 0.3-0.7 10^6 cells/mL in RPMI1640 medium supplemented with GlutaMAX™, 10% fetal bovine serum and 1% penicillin-streptomycin.
We developed a cell-based, high content assay allowing the rapid detection and quantification of apoptotic cells. Caspase-3/7 activity was detected in real-time using the NucView™ 488 Caspase-3 substrate (Biotium), where the caspase-3/7 substrate peptide sequence DEVD is attached to a nucleic acid dye. The NucView™ 488 reagent crosses the plasma membrane to enter the cytoplasm, where the dye is unable to bind to DNA and remains non-fluorescent. Once the substrate has been cleaved by activated caspase-3/7 in apoptotic cells, the high-affinity DNA dye is released and migrates to the cell nucleus to stain the nucleus with a bright green fluorescence. All cell nuclei were also labeled with Hoechst 33342 (Ozyme).
For OPM2, briefly, nanoliters of compound and cytotoxic agent in DMSO stock solutions were first transferred and combined in 384-microtiter well plate using an Echo555 liquid handler (Labcyte). The exact volume of each solution to be transferred was calculated to achieve subsequently the target concentration in the 70 μL volume incubate. Final DMSO content was maintained at 0.2%. Then, 70 μL of cells treated with 1 μM NucView™ 488 and 20 ng/mL Hoechst 33342 were distributed to the plates to obtain a final density of 12,000 cells per well. The microplates were incubated at 37° C. and 5% CO2 in an automated LiCONiC STR240 UB cell incubator, and images were acquired at various times at 405 nm and 488 nm with the high-resolution automated confocal microscope INCell 6000 (GE). Four fields per well were read with the 20× objective in a confocal mode. The BioCel workstation was managed by VWorks automation control software
For all cells, Columbus software (Perkin) was used for image quantification and analysis. First, Hoechst 33342 staining was used for an automated detection of nuclei, in which the mean fluorescence intensity for NucView™ 488 was quantified. Inspection of control cells at initial time was used to set a threshold level of NucView™ 488 fluorescence to separate non apoptotic cells from apoptotic cells. Finally, for each well, the result was expressed as percentage of apoptotic cells in the total cell population. CC50 values were calculated from concentration-response curves by a nonlinear regression analysis at four parameters using Excel Fit or GraphPad Prim softwares.
Activity=(% of apoptotic cells with cytotoxic agent in combination with compound of the invention)/(% of apoptotic cells with cytotoxic agent alone). • Ratio of CC50: The CC50 of the cytotoxic agent was calculated in absence and in presence of a compound of the invention.
Activity=(CC50 of agent alone)/(CC50 of agent with compound). • Ratio of AUC. Activity=(Area of the dose-concentration curve of cytotoxic agent combined with one concentration of compound)/(Area of the dose-concentration curve of cytotoxic agent alone). (Lehar J. et al, 2008 (molecular systems biology 4:215)).

Row | Structure (SMILES) | Activity: ratio (CC50 of CFZ alone)/(CC50 of CFZ in combination with compound of the invention)
1 | O=C(C[C@@H](Cc1csc2ccccc12)n1cc(CNC(=O)c2ccc(F)c(F)c2)nn1)NO [Compound 179, (R)—N-((1-(1-(benzo[b]thiophen-3-yl)-4-(hydroxyamino)-4-oxobutan-2-yl)-1H-1,2,3-triazol-4-yl)methyl)-3,4-difluorobenzamide] | 1.6
2 | O=C(C[C@@H](Cc1ccc2cc[nH]c2c1)n1cc(CNC(=O)c2ccc(F)cc2)nn1)NO [Compound 176, (R)-4-fluoro-N-((1-(4-(hydroxyamino)-1-(1H-indol-6-yl)-4-oxobutan-2-yl)-1H-1,2,3-triazol-4-yl)methyl)benzamide] | 1.3
3 | O=C(C[C@@H](Cc1ccc2ccccc2c1)n1cc(C2COCCN2C(=O)c2ccc(F)c(F)c2)nn1)NO (stereo partly drawn) [Compound 95, (3R)-3-[4-[4-(3,4-difluorobenzoyl)morpholin-3-yl]triazol-1-yl]-4-(2-naphthyl)butanehydroxamic acid] | 2.1
4 | O=C(C[C@@H](Cc1ccc2ccccc2c1)n1cc(CNS(=O)(=O)c2ccc(F)cc2)nn1)NO [Compound 6, (R)-3-{4-[(4-Fluoro-benzenesulfonylamino)-methyl]-[1,2,3]triazol-1-yl}-N-hydroxy-4-naphthalen-2-yl-butyramide] | 1.3
5 | O=C(C[C@@H](Cc1cnc2ccccc2c1)n1cc(CNC(=O)c2ccc(F)c(F)c2)nn1)NO [Compound 143, (R)-3,4-difluoro-N-((1-(4-(hydroxyamino)-4-oxo-1-(quinolin-3-yl)butan-2-yl)-1H-1,2,3-triazol-4-yl)methyl)benzamide] | 1.1
6 | O=C(C[C@@H](Cc1ccc2ccccc2c1)n1cc(COCc2ccccc2)nn1)NO [Compound 23, (R)-3-(4-benzyloxymethyl-[1,2,3]triazol-1-yl)-N-hydroxy-4-naphthalen-2-yl-butyramide] | 1.1
7 | O=C(C[C@@H](Cc1cc2ccccc2s1)n1cc(CNC(=O)c2ccc(F)cc2)nn1)NO [Compound 182, (S)—N-((1-(1-(benzo[b]thiophen-2-yl)-4-(hydroxyamino)-4-oxobutan-2-yl)-1H-1,2,3-triazol-4-yl)methyl)-4-fluorobenzamide] | 2.7
8 | O=C(C[C@@H](Cc1ccc2c(c1)CCCC2)n1cc(CNC(=O)c2ccc(F)cc2)nn1)NO [Compound 165, (R)-4-fluoro-N-((1-(4-(hydroxyamino)-4-oxo-1-(5,6,7,8-tetrahydronaphthalen-2-yl)butan-2-yl)-1H-1,2,3-triazol-4-yl)methyl)benzamide] | 1.9
9 | O=C(NCc1noc(C(Cc2ccc3ccccc3c2)C(=O)NO)n1)c1ccc(F)cc1 (centres unmarked) [Compound 44, 4-Fluoro-N-[5-(1-hydroxycarbamoyl-2-naphthalen-2-yl-ethyl)-[1,2,4]oxadiazol-3-ylmethyl]-benzamide] | 1.2
10 | CC(NC(=O)c1ccc(F)c(F)c1)c1cn([C@@H](CC(=O)NO)Cc2c[nH]c3ccccc23)nn1 (stereo partly drawn) [Compound 91, 3,4-difluoro-N-[1-[1-[(1R)-3-(hydroxyamino)-1-(1H-indol-3-ylmethyl)-3-oxo-propyl]triazol-4-yl]ethyl]benzamide] | 1.4
11 | CN(Cc1cn([C@@H](CC(=O)NO)Cc2ccc3ccccc3c2)nn1)C(=O)c1ccc(F)c(F)c1 [Compound 87] | 1.7
12 | O=C(C[C@@H](Cc1ccc2cccnc2c1)n1cc(CNC(=O)c2ccc(F)c(F)c2)nn1)NO [Compound 170, (R)-3,4-difluoro-N-((1-(4-(hydroxyamino)-4-oxo-1-(quinolin-7-yl)butan-2-yl)-1H-1,2,3-triazol-4-yl)methyl)benzamide] | 1.5
13 | O=C(C[C@@H](Cc1ccc2ccccc2c1)n1nncc1CNC(=O)CCc1ccccc1)NO [Compound 25, (R)—N-hydroxy-4-naphthalen-2-yl-3-{5-[(3-phenyl-propionylamino)-methyl]-[1,2,3]-triazol-1-yl}-butyramide] | 1.4
14 | CC(NC(=O)c1ccc(F)cc1)c1cn([C@@H](CC(=O)NO)Cc2ccc3ccccc3c2)nn1 (stereo partly drawn) [Compound 164, 4-fluoro-N-(1-(1-((R)-4-(hydroxyamino)-1-(naphthalen-2-yl)-4-oxobutan-2-yl)-1H-1,2,3-triazol-4-yl)ethyl)benzamide] | 2.0
15 | COc1ccc2cc([C@H](C)C(=O)NCc3cnnn3[C@@H](CC(=O)NO)Cc3ccc4ccccc4c3)ccc2c1 [Compound 26, (R,S)—N-hydroxy-3-(5-{[2-(6-methoxy-naphthalen-2-yl)-propionylamino]-methyl}-[1,2,3]triazol-1-yl)-4-naphthalen-2-yl-butyramide] | 1.8
16 | CC(NC(=O)c1ccc(F)cc1)c1cn([C@@H](CC(=O)NO)Cc2ccc3c(c2)CCCC3)nn1 (stereo partly drawn) [Compound 167, 4-fluoro-N-(1-(1-((R)-4-(hydroxyamino)-4-oxo-1-(5,6,7,8-tetrahydronaphthalen-2-yl)butan-2-yl)-1H-1,2,3-triazol-4-yl)ethyl)benzamide] | 2.5
17 | O=C(C[C@@H](Cc1ccc2ncsc2c1)n1cc(CNC(=O)c2ccc(F)c(F)c2)nn1)NO [Compound 178, (R)—N-((1-(1-(benzo[d]thiazol-6-yl)-4-(hydroxyamino)-4-oxobutan-2-yl)-1H-1,2,3-triazol-4-yl)methyl)-3,4-difluorobenzamide] | 1.3
18 | O=C(C[C@@H](Cc1ccc2ccccc2c1)n1cc([C@H](CO)NC(=O)c2ccc(F)c(F)c2)nn1)NO [Compound 96, 3,4-difluoro-N-[(1R)-2-hydroxy-1-[1-[(1R)-3-(hydroxyamino)-1-(2-naphthylmethyl)-3-oxo-propyl]triazol-4-yl]ethyl]benzamide] | 1.4
19 | CC(NC(=O)c1ccc(F)c(F)c1)c1cn([C@@H](CC(=O)NO)Cc2ccc3ccccc3c2)nn1 (stereo in doubt) [Compound 78, 3,4-difluoro-N-[1-[1-[3-(hydroxyamino)-1-(2-naphthylmethyl)-3-oxo-propyl]triazol-4-yl]ethyl]benzamide] | 2.0
20 | O=C(C[C@@H](Cc1c[nH]c2ccccc12)n1cc([C@H](CO)NC(=O)c2ccc(F)c(F)c2)nn1)NO [Compound 92, 3,4-difluoro-N-[(1R)-2-hydroxy-1-[1-[(1R)-3-(hydroxyamino)-1-(1H-indol-3-ylmethyl)-3-oxo-propyl]triazol-4-yl]ethyl]benzamide] | 1.7
